#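 Tested at 5 concentrations; 48 h exposure; 96-well plates; endpoints linearly interpolated, else capped at highest concentration. At the GI50, growth is halved. The concentration for full growth arrest is given as TGI.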
# Tested on: SK-OV-3 ovarian
# Experiment: NCI-60 cell line screen, 48 h
row,Compound,TGI
1,Cn1c(=O)nc2n(-c3cc(C(F)(F)F)cc(C(F)(F)F)c3)c3ccccc3nc-2c1=O,> 100 µM

# Tested on: SW-620 colon
# Experiment: NCI-60 cell line screen, 48 h
Compound,GI50,TGI
O=C(O)c1cccc(COc2ccc([N+](=O)[O-])cc2Cl)c1,> 100 µM,> 100 µM
Nc1ccccc1C(=O)/C=C/c1c(O)ccc2ccccc12,,> 100 µM
CCC(C)(O)c1cnc(CC(C)C)c(=O)n1O (stereo unspecified),,> 100 µM
CCC1CN2CCc3cc(OC)c(OC)cc3C2CC1CC1c2cc(OC)c(OC)cc2CCN1C(=O)C1CCCN1 (stereo unspecified),,> 100 µM
CC(C(=O)c1ccc(Cl)cc1)/C(=N/NC(=O)NN)C(=O)Nc1cccc(C(F)(F)F)c1 (stereo unspecified),,> 100 µM
CCOP(=O)(OCC)C(C(=O)OC)C(=O)C(=O)Nc1ccc(Cl)cc1Cl (stereo unspecified),,> 100 µM
Cn1cc(-c2csc(-c3cn(CCCCN4CCCCC4)c4ccccc34)n2)c2cccnc21,1.72 µM,3.25 µM
CC(C)=C1CCC(CN(C)C)C1=O (stereo unspecified),,20.2 µM
COc1ccc(-c2cnnn2-c2nonc2-n2cccc2)cc1,0.149 µM,> 100 µM
COc1cccc(/C=N/[N-]C(=O)c2ccncc2)c1[O-].COc1cccc(/C=N/[N-]C(=O)c2ccncc2)c1[O-].[O]=[U](=[O])([OH2+])[OH2+],7.81 µM,> 100 µM
CC(C)(C)c1ccc2c(c1)S(=O)(=O)Nc1ccc(Cl)cc1NS(=O)(=O)c1cc(C(C)(C)C)ccc1OCCOCCOCCO2,,> 100 µM
COc1ccc(C(=O)c2cc(OC)c(OC)c(OC)c2)cc1OC,,> 100 µM
O=C1c2ccccc2-c2c1c1ccccc1c(=O)n2CCN1CCNCC1,1.47 µM,7.28 µM
CCCc1cc(=O)n2c(C(=O)Nc3ccc(Cl)cc3C)c(C(=O)Nc3ccc(F)cc3)sc2n1,6.45 µM,61.4 µM
N#CC(=Nc1ccccc1N(C(=O)c1ccccc1)C(=O)c1ccccc1)c1ccccc1,,> 62.2 µM
COc1c(C)n(CCO)ccc1=O,,> 100 µM
COC(=O)C(=O)C(C(C)=O)C(=O)NCc1ccc(OC)c(OC)c1 (stereo unspecified),,> 100 µM
Nc1c(-c2ccccc2-c2c(N)[n+]([O-])c3ccccc3[n+]2[O-])[n+]([O-])c2ccccc2[n+]1[O-],,> 100 µM
CCOC(=O)NC(=O)c1cn(C(CC)COC(=O)NCCCCCCNC(=O)OCC(CC)n2cc(C(=O)NC(=O)OCC)c(=O)[nH]c2=O)c(=O)[nH]c1=O (stereo unspecified),,> 100 µM
O=C(CC(=O)C1CCOC1=O)C(=O)Nc1cccc(Cl)c1 (stereo unspecified),,> 100 µM
CCN1c2ccccc2-c2c3c1cc(C)cc3c1ccccc1[n+]2CC,,6.63 µM

Compound,GI50,TGI
Cc1cccc(C2=C/C(=C(\SS/C(C(=O)c3ccc(OCC(=O)O)c(Cl)c3Cl)=C3\C=C(c4cccc(C)c4)SS3)C(=O)c3ccc(OCC(=O)O)c(Cl)c3Cl)SS2)c1,,49.8 µM
CC(=O)N1CCN(c2ccc(OCC3COC(Cn4ccnc4)(c4ccc(Cl)cc4Cl)O3)cc2)CC1 (stereo unspecified),,> 100 µM
O=C(Cc1nc2c3c(ccc2[nH]c1=O)C(=O)c1ccccc1C3=O)C(=O)Nc1ccccc1[N+](=O)[O-],,28.6 µM
CC1=C(C#N)C(=O)CC(c2ccc(Cl)cc2)N(C)N1 (stereo unspecified),,> 100 µM
Nc1nc(-c2ccc(Cl)c([N+](=O)[O-])c2)cs1,,> 100 µM
COc1cc(/C=C2\[C@H]3c4c(c(OC)c(C)c(OC)c4OC)CC(C(=O)N2Cc2ccccc2)N3C)c(OC)c(C)c1OC,,41.5 µM
CC1(C)CN=C(NN=C(/C=C/c2ccc(C(F)(F)F)cc2)/C=C/c2ccc(C(F)(F)F)cc2)NC1,1.14 µM,2.66 µM
CCCC/C(=C\C1=C(C)C(=O)C(OC)=C(OC)C1=O)C(=O)O,> 100 µM,> 100 µM
COc1ccc(C(CC(=O)c2ccc3c(c2)OCO3)c2c(O)c3ccccc3oc2=O)cc1OC (stereo unspecified),,> 100 µM
O=C(N/C(=C\c1ccc([N+](=O)[O-])cc1)c1nc2ccccc2[nH]1)c1ccccc1,,> 100 µM
COC(=O)/C([Se]c1c(C)cc(C)cc1C)=C(/[Se]c1c(C)cc(C)cc1C)C(=O)OC,,> 100 µM
NC(=O)C(=O)CC(=O)c1ccccc1NC1=CC(=O)C(=O)c2ccccc21,,> 100 µM
Cc1cc2c(c(C(N)=O)c1C)-c1ccccc1C2=O,,> 100 µM
CCCC(=O)C1=C(O)C(Cc2c(O)c(C)c(O)c(C(=O)CCC)c2O)=C(O)C(C)(C)C1=O,,> 50 µM
COC(=O)/C(=N/O)C(C(=O)C=C(C)C)C(=O)C(=O)Nc1nc2ccc([N+](=O)[O-])cc2s1 (stereo unspecified),,> 100 µM
Cc1ccccc1C1=[N+]([O-])c2ccc(Cl)cc2C1=O,,40.9 µM
Cc1[nH]c2ccccc2c1C1Cc2ccccc2N1C(=O)C#Cc1ccc([N+](=O)[O-])cc1 (stereo unspecified),,> 100 µM
CCC/C=C/C=C/C1CC(O)C(O)C(=O)C1CO (stereo unspecified),,> 100 µM
CCOC(=O)NC(=O)c1cn(C2CCCCC2)c(=O)[nH]c1=O,,> 100 µM
Cn1c(=O)nc2n(-c3cc(C(F)(F)F)cc(C(F)(F)F)c3)c3ccccc3nc-2c1=O,,> 100 µM

# Tested on: HCT-15 colon
# Experiment: NCI-60 cell line screen, 48 h
Compound,GI50,TGI
O=C(O)c1cccc(COc2ccc([N+](=O)[O-])cc2Cl)c1,> 100 µM,> 100 µM
Nc1ccccc1C(=O)/C=C/c1c(O)ccc2ccccc12,,> 100 µM
CCC(C)(O)c1cnc(CC(C)C)c(=O)n1O (stereo unspecified),,> 100 µM
CCC1CN2CCc3cc(OC)c(OC)cc3C2CC1CC1c2cc(OC)c(OC)cc2CCN1C(=O)C1CCCN1 (stereo unspecified),,> 100 µM
CC(C(=O)c1ccc(Cl)cc1)/C(=N/NC(=O)NN)C(=O)Nc1cccc(C(F)(F)F)c1 (stereo unspecified),,> 100 µM
CCOP(=O)(OCC)C(C(=O)OC)C(=O)C(=O)Nc1ccc(Cl)cc1Cl (stereo unspecified),,> 100 µM
Cn1cc(-c2csc(-c3cn(CCCCN4CCCCC4)c4ccccc34)n2)c2cccnc21,1.53 µM,2.9 µM
CC(C)=C1CCC(CN(C)C)C1=O (stereo unspecified),,30.8 µM
COc1ccc(-c2cnnn2-c2nonc2-n2cccc2)cc1,0.311 µM,> 100 µM
COc1cccc(/C=N/[N-]C(=O)c2ccncc2)c1[O-].COc1cccc(/C=N/[N-]C(=O)c2ccncc2)c1[O-].[O]=[U](=[O])([OH2+])[OH2+],4.77 µM,> 100 µM
CC(C)(C)c1ccc2c(c1)S(=O)(=O)Nc1ccc(Cl)cc1NS(=O)(=O)c1cc(C(C)(C)C)ccc1OCCOCCOCCO2,,> 100 µM
COc1ccc(C(=O)c2cc(OC)c(OC)c(OC)c2)cc1OC,,> 100 µM
O=C1c2ccccc2-c2c1c1ccccc1c(=O)n2CCN1CCNCC1,0.935 µM,11.3 µM
CCCc1cc(=O)n2c(C(=O)Nc3ccc(Cl)cc3C)c(C(=O)Nc3ccc(F)cc3)sc2n1,9.4 µM,> 150 µM
N#CC(=Nc1ccccc1N(C(=O)c1ccccc1)C(=O)c1ccccc1)c1ccccc1,,> 90.3 µM
COc1c(C)n(CCO)ccc1=O,,> 100 µM
COC(=O)C(=O)C(C(C)=O)C(=O)NCc1ccc(OC)c(OC)c1 (stereo unspecified),,> 100 µM
Nc1c(-c2ccccc2-c2c(N)[n+]([O-])c3ccccc3[n+]2[O-])[n+]([O-])c2ccccc2[n+]1[O-],,> 100 µM
CCOC(=O)NC(=O)c1cn(C(CC)COC(=O)NCCCCCCNC(=O)OCC(CC)n2cc(C(=O)NC(=O)OCC)c(=O)[nH]c2=O)c(=O)[nH]c1=O (stereo unspecified),,> 100 µM

Compound,GI50,TGI
O=C(CC(=O)C1CCOC1=O)C(=O)Nc1cccc(Cl)c1 (stereo unspecified),,> 100 µM
CCN1c2ccccc2-c2c3c1cc(C)cc3c1ccccc1[n+]2CC,,22.6 µM
Cc1cccc(C2=C/C(=C(\SS/C(C(=O)c3ccc(OCC(=O)O)c(Cl)c3Cl)=C3\C=C(c4cccc(C)c4)SS3)C(=O)c3ccc(OCC(=O)O)c(Cl)c3Cl)SS2)c1,,> 51.6 µM
CC(=O)N1CCN(c2ccc(OCC3COC(Cn4ccnc4)(c4ccc(Cl)cc4Cl)O3)cc2)CC1 (stereo unspecified),,> 100 µM
CC1=C(C#N)C(=O)CC(c2ccc(Cl)cc2)N(C)N1 (stereo unspecified),,> 100 µM
Nc1nc(-c2ccc(Cl)c([N+](=O)[O-])c2)cs1,,> 100 µM
CC1(C)CN=C(NN=C(/C=C/c2ccc(C(F)(F)F)cc2)/C=C/c2ccc(C(F)(F)F)cc2)NC1,0.989 µM,2.45 µM
CCCC/C(=C\C1=C(C)C(=O)C(OC)=C(OC)C1=O)C(=O)O,> 100 µM,> 100 µM
COc1ccc(C(CC(=O)c2ccc3c(c2)OCO3)c2c(O)c3ccccc3oc2=O)cc1OC (stereo unspecified),,> 100 µM
O=C(N/C(=C\c1ccc([N+](=O)[O-])cc1)c1nc2ccccc2[nH]1)c1ccccc1,,> 100 µM
COC(=O)/C([Se]c1c(C)cc(C)cc1C)=C(/[Se]c1c(C)cc(C)cc1C)C(=O)OC,,> 100 µM
NC(=O)C(=O)CC(=O)c1ccccc1NC1=CC(=O)C(=O)c2ccccc21,,> 100 µM
Cc1cc2c(c(C(N)=O)c1C)-c1ccccc1C2=O,,> 100 µM
CCCC(=O)C1=C(O)C(Cc2c(O)c(C)c(O)c(C(=O)CCC)c2O)=C(O)C(C)(C)C1=O,,> 50 µM
COC(=O)/C(=N/O)C(C(=O)C=C(C)C)C(=O)C(=O)Nc1nc2ccc([N+](=O)[O-])cc2s1 (stereo unspecified),,> 100 µM
Cc1ccccc1C1=[N+]([O-])c2ccc(Cl)cc2C1=O,,31.9 µM
CCC/C=C/C=C/C1CC(O)C(O)C(=O)C1CO (stereo unspecified),,> 100 µM
CCOC(=O)NC(=O)c1cn(C2CCCCC2)c(=O)[nH]c1=O,,> 100 µM
Cn1c(=O)nc2n(-c3cc(C(F)(F)F)cc(C(F)(F)F)c3)c3ccccc3nc-2c1=O,,> 100 µM

# Reference: PubChem BioAssay (NCI)
